# ChEMBL document CHEMBL1150602, “Novel diterpene lactones from Suregada multiflora” (2002)
# What was measured:
# [1] = tested on: Saccharomyces cerevisiae; test: DNA damaging activity against DNA repair-deficient yeast RAD52 mutant assessed as drug concentration required to produce 12 mm zone of inhibition; type: functional
# [2] = tested on: Saccharomyces cerevisiae; test: DNA damaging activity against DNA repair-proficient yeast RAD+ assessed as drug concentration required to produce 12 mm zone of inhibition; type: functional
Structure (SMILES),IC12 [1] [µg/mL],IC12 [2] [µg/mL]
COC1=C(N)C(=O)c2nc(-c3nc(C(=O)O)c(C)c(-c4ccc(OC)c(OC)c4O)c3N)ccc2C1=O [STREPTONIGRIN],0.4,> 1
CC1=C2[C@@H](O)[C@]3(O)CC[C@@H]4[C@@]5(C)C[C@H]5CC[C@@]4(C)[C@@H]3C[C@H]2OC1=O [SUREGADOLIDE A],35,70
